Legend:
LRRK2 kinase = molecular target: T1, LRRK2 kinase (Homo sapiens, UniProt Q5S007); test: Biochemical assay for LRRK2 (coupled pyruvate kinase/lactate dehydrogenase assay); conditions: 26.4 nM LRRK2 (residues 970-2528), peptide substrate, 1 mM ATP
T1 construct: (residues 970-2528; ID NO; 4); purchased Thermo Fisher
Protocol: (§1) Activity of LRRK2 kinase was determined spectroscopically using a coupled pyruvate kinase/lactate dehydrogenase assay that continuously monitors the ATP hydrolysis-dependent oxidation of NADH (e.g., Schindler et al. Science (2000) 289: 1938-1942). Assays were conducted in 384-well plates (100 uL final volume) using 26.4 nM LRRK2 (Thermo Fisher), 0.1 mM peptide substrate (RLGRDKYKTLRQIRQ (SEQ ID NO: 6)), 1.5 units pyruvate kinase, 2.1 units lactate dehydrogenase, 1 mM phosphoenol pyruvate, 0.28 mM NADH and 1 mM ATP in assay buffer (100 mM Tris, pH 7.5, 15 mM MgCl2, 0.5 mM DTT, 0.004% (w/v) BSA, and 0.004% Triton X-100). Inhibition of LRRK2 was measured by adding serial diluted test compound (final assay concentration of 1% DMSO). A decrease in absorption at 340 nm was monitored continuously for 6 hours at 30° C. on a multi-mode microplate reader (BioTek). The reaction rate was calculated using the 2-3 h time frame. The reaction rate at each concentration of compound was converted to percent inhibition using controls (i.e. reaction with no test compound and reaction with a known inhibitor) and IC50 values were calculated using software routines in Prism (GraphPad software).

ULK1 kinase [1] = molecular target: T2, ULK1 kinase (Homo sapiens, UniProt O75385, E37A/K38A); test: Biochemical assay for ULK1.3 (coupled pyruvate kinase/lactate dehydrogenase assay); conditions: 0.1 nM ULK1 (residues 1-283), peptide substrate, 1 mM ATP
T2 construct: (residues 1-283; ID NO: 2); purchased Beryllium
T2 sequence (O75385 1-283 E37A/K38A): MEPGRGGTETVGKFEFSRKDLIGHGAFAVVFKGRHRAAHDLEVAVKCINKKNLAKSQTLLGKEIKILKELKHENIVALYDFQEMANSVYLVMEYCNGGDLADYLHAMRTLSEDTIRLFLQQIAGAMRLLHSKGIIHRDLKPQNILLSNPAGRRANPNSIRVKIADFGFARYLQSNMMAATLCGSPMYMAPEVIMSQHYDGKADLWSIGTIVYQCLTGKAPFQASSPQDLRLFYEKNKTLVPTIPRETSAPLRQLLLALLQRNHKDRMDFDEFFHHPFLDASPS
Protocol: as §1, with “ULK1” for “LRRK2”, “0.1” for “26.4”, “ULK1 (from Beryllium), 0.075” for “LRRK2 (Thermo Fisher), 0.1”, “(YANWLAASIYLDGKKK” for “(RLGRDKYKTLRQIRQ”, “5)),” for “6)),”

ULK1 kinase [2] = molecular target: T3, ULK1 kinase (Homo sapiens, UniProt O75385); test: Biochemical assay for ULK1.2 (coupled pyruvate kinase/lactate dehydrogenase assay); conditions: 19 nM ULK1 (residues 1-314), myelin basic protein substrate, 1 mM ATP
T3 construct: purchased Eurofins 14-959
T3 sequence (O75385 with tags, fused parts or gaps): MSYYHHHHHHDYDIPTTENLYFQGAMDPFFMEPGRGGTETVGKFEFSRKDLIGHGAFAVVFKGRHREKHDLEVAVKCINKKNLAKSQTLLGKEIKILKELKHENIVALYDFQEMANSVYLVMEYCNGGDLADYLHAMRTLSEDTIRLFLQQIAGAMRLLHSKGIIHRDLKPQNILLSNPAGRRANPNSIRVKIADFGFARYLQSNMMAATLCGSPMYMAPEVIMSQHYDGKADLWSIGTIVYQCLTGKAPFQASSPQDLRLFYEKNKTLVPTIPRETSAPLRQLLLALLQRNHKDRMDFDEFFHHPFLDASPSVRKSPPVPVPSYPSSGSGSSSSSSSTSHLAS
Protocol: Activity of ULK1 kinase was determined spectroscopically using a coupled pyruvate kinase/lactate dehydrogenase assay that continuously monitors the ATP hydrolysis-dependent oxidation of NADH (e.g., Schindler et al. Science (2000) 289: 1938-1942). Assays were conducted in 384-well plates (100 uL final volume) using 19 nM ULK1 (Eurofins CAT #14-959), 0.25 mg/mL myelin basic protein, 1.5 units pyruvate kinase, 2.1 units lactate dehydrogenase, 1 mM phosphoenol pyruvate, 0.28 mM NADH and 1 mM ATP in assay buffer (100 mM Tris, pH 7.5, 15 mM MgCl2, 0.5 mM DTT, 0.1% octyl-glucoside, 0.002% (w/v) BSA, and 0.002% Triton X-100). Inhibition of ULK1 was measured by adding serial diluted test compound (final assay concentration of 1% DMSO). A decrease in absorption at 340 nm was monitored continuously for 6 hours at 30° C. on a multi-mode microplate reader (BioTek). The reaction rate was calculated using the 2-3 h time frame. The reaction rate at each concentration of compound was converted to percent inhibition using controls (i.e. reaction with no test compound and reaction with a known inhibitor) and IC50 values were calculated by fitting a four-parameter sigmoidal curve to the data using Prism (GraphPad software).

T1 sequence (Q5S007 with tags, fused parts or gaps): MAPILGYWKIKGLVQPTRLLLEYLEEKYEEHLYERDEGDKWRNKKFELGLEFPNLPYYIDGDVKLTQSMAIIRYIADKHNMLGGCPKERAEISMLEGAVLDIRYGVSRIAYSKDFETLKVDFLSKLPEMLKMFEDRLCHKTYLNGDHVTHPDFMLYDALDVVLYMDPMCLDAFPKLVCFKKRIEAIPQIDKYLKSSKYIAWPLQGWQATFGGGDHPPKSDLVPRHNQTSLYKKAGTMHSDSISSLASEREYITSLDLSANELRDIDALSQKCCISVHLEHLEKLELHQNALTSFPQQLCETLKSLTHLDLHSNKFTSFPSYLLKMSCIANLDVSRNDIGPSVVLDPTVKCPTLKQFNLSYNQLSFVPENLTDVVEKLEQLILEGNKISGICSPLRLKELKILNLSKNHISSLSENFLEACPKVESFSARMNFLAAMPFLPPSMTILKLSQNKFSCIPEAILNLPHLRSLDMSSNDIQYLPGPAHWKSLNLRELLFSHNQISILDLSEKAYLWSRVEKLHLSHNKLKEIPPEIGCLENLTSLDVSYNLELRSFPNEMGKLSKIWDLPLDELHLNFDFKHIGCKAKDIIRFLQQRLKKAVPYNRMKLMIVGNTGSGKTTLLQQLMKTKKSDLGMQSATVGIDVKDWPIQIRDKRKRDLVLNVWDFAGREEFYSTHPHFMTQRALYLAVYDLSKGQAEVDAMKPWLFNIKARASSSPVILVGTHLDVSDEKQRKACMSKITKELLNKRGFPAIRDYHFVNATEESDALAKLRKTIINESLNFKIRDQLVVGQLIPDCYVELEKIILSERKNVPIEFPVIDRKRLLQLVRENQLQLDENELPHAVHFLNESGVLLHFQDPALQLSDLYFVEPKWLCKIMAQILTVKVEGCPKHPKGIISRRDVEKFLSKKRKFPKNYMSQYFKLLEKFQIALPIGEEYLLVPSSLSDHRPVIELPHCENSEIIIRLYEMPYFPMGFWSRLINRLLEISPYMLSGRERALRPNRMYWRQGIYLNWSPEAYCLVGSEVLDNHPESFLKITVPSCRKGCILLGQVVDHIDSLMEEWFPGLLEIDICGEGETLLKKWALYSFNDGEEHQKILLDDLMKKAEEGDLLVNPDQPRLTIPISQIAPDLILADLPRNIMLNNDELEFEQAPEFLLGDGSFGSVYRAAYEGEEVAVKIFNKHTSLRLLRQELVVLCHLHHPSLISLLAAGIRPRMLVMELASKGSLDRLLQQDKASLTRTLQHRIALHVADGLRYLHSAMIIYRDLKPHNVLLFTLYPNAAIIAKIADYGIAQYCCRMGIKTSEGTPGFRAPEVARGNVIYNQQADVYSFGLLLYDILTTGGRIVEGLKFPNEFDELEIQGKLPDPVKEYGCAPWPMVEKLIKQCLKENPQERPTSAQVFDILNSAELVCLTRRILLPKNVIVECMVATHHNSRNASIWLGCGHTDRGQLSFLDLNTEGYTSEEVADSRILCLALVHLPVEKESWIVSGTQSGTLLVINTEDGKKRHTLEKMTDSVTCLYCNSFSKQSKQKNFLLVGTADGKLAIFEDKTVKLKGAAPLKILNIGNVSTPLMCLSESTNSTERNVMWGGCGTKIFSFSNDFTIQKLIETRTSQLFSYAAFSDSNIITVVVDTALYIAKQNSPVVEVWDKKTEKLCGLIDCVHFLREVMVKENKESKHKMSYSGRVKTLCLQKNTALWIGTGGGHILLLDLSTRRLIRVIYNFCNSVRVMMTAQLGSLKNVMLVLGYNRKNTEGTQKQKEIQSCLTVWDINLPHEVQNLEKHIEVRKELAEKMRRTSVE

SMILES	IC50 (LRRK2 kinase) [nM]	IC50 (ULK1 kinase [1]) [nM]	IC50 (ULK1 kinase [2]) [nM]
CC(C)c1cc(N2CCN(C)CC2)ccc1Nc1ncc(C(F)(F)F)c(NCCCNC(=O)C2CCC2)n1 [Example 3]	1 to 100	1 to 25	
COc1cc(N2CCN(C)CC2)ccc1Nc1ncc(C(F)(F)F)c(NCCCNC(=O)C2CCC2)n1 [Example 4]	1 to 100	25 to 100	
CC(C)c1cc(N2CCN(C)CC2)ccc1Nc1ncc(Br)c(NCCCNC(=O)C2CCC2)n1 [Example 8]	600 to 20000	25 to 100	

The next lines start with the values.

IC50 (LRRK2 kinase) [nM]	IC50 (ULK1 kinase [1]) [nM]	IC50 (ULK1 kinase [2]) [nM]	SMILES
100 to 300		25 to 100	Cc1cc(N2CCN(C)CC2)ccc1Nc1ncc(C(F)(F)F)c(NCCCNC(=O)C(C)(C)C)n1 [Example 12]
100 to 300	1 to 25		CN1CCN(c2ccc(Nc3ncc(C(F)(F)F)c(NCCCNC(=O)C4CCC4)n3)c(C3CC3)c2)CC1 [Example 14]

— patent US11590134B2, “Aminopyrimidine amide autophagy inhibitors and methods of use thereof” (Deciphera Pharmaceuticals, LLC, priority 2019, dated 2023)
